Experimental data as given in article PMC12679848, “Sulphonamide derivatives with a triazine core as novel inducers of apoptosis and pyroptosis in glioblastoma multiforme cells” (Journal of Enzyme Inhibition and Medicinal Chemistry, 2025).

Legend:
C8-D1A = test: MTT assay, C8-D1A astrocytes; type: cell-based; details: C8-D1A mouse astrocytes, 24 h of incubation; read-out: IC50 values ± SEM, MTT assay
Experimental: Human glioblastoma cell lines (A172 CRL-1620™, U-87 MG HTB-14™, U-118 MG HTB-15™, T98G CRL-1690™) and the mouse astrocyte cell line (C8-D1A CRL-2541™) were obtained from the American Type Culture Collection (ATCC, Manassas, VA, USA). The cell lines were cultured in complete medium: DMEM (Corning, Kennebunk, ME, USA) for C8-D1A and T98G, and EMEM (ATCC, Manassas, VA, USA) for A172, U-87 MG, U118MG. The media were supplemented with 10% foetal bovine serum (Eurx, Gdansk, Poland) and 1% penicillin-streptomycin solution (Corning, Kennebunk, ME, USA). Cells were cultured in cell culture flasks (Sarstedt, Numbrecht, Germany) at 37 °C in 5% CO2. For experiments, cells were washed with phosphate-buffered saline without calcium and magnesium (Corning, Kennebunk, ME, USA) and treated with 0.05% trypsin and 0.02% EDTA (Corning, Kennebunk, ME, USA). Cells were counted using a Sceptre 3.0 cell counter (Merck Millipore, Burlington, MA, USA) prior to seeding into plates. For 6-well plates, 5 x 10^5 cells/mL were seeded, while for 96-well plates (Sarstedt, Numbrecht, Germany), 1 x 10^5 cells/mL were seeded in 100 μL of the medium.
The cell lines were seeded in 96-well plates and cultured according to the methodology described in the previous section. Cells were then treated with the novel derivatives MM118 and MM119 and the reference compound temozolomide (TMZ) (Sigma-Aldrich, St. Louis, MO, USA) at concentrations of 0.1, 0.25, 0.5, 1.0, 2.5, 5.0, and 10.0 μM for 24 h. The MTT assay was performed using a solution of 3–(4,5-dimethyl-2-thiazolyl)-2,5-diphenyl-2H-tetrazolium bromide (Sigma-Aldrich, St. Louis, MO, USA) at a concentration of 5 mg/mL in phosphate-buffered saline without calcium and magnesium (Corning, Kennebunk, ME, USA). After 24 h incubation with test compounds, 10 μL MTT solution was added to each well, and cells were incubated for another 2 h at 37 °C. The cells were then lysed in 100 μL lysis buffer (25 mM HCl, 2% acetic acid, 3% DMF, and 5% SDS, adjusted to pH 4.7). Absorbance was measured at 570 nm using an Absorbance 96 microplate reader (Byonoy GmbH, Hamburg, Germany).

A172 = test: LDH release assay, A172; type: cell-based, human; details: A172, 1.5 μM, 24 h
Experimental: Analogous to the procedure described in the previous section, A172 and U-87 MG cells were cultured and plated in 96-well plates. The LDH-Cytotoxicity Assay Kit II (ab65393) (Abcam, Cambridge, UK) was used to assess cytotoxicity according to the manufacturer’s protocol. The test compounds MM118 and MM119 and the reference compound temozolomide (TMZ) were added to the cells at a concentration of 1.5 μM. After 24 h of exposure, the medium was collected, centrifuged and 10 μL of each sample was transferred to a new 96-well plate. In the next step, 100 μL of LDH Reaction Mix was added to each well and incubated for 30 min at room temperature. Absorbance was measured at 450 nm using an Absorbance 96 microplate reader (Byonoy GmbH, Hamburg, Germany). Cytotoxicity was calculated according to the formula provided by the manufacturer: Cytotoxicity (%) = ((Test Sample – Low Control)/(High Control – Low Control)) X 100, where Low Control - control without added compound, High Control with added 10 µL Lysis Buffer II.

U-87 MG = test: Mitochondrial membrane potential (JC-1), U-87 MG; type: cell-based, human; details: 1.5 μM, 24 h
Experimental: The impact of the novel compounds on mitochondrial membrane potential (ΔΨm) was examined. […] In this study, the fluorochrome JC-1 was employed, which, in cells with normally functioning mitochondria, aggregates and accumulates in the hyperpolarized mitochondrial membrane, emitting a red colour. Conversely, when the membrane is damaged, JC-1 breaks down into monomers, emitting green fluorescence. […] For the U-87 MG cell line, these parameters were equal to 54.88 ± 8.36% and 56.13 ± 13.97% of the cell population.
JC-1 (1,1′,3,3′-Tetraethyl-5,5′,6,6′-tetrachloroimidacarbocyanine iodide) (BD Biosciences, San Diego, CA, USA), a lipophilic fluorochrome, was used to evaluate changes in mitochondrial membrane potential. After treatment, cancer cells at a concentration of 1 × 10^6 cells/mL were collected and rinsed twice with PBS. Then, 500 μL JC-1 working solution was added to each sample according to the manufacturer’s protocol. The samples were then incubated for 15 min at 37 °C in a CO2 incubator. After incubation, samples were washed twice with an assay buffer, and 500 μL of each sample was transferred to a BD FACSCanto II flow cytometer (Becton Dickinson Biosciences, San Jose, CA, USA) for analysis, with 10,000 events recorded per sample. Data were analysed using FACSDiva software version 6.1.3 (BD Biosciences Systems, San Jose, CA, USA).

NF-κB = test: NF-kB staining (immunofluorescence, confocal); type: cell-based; details: 1.5 μM, 24 h of treatment
Experimental: Location of NF-kB was evaluated by immunofluorescence staining. Cells were cultured on sterile coverslips placed in 6-well plates and treated with compounds MM118, MM119, and TMZ at a concentration of 1.5 μM. After 24 h of treatment, cells were fixed with 4% paraformaldehyde for 15 min at room temperature, then permeabilized with 0.1% Triton X-100 in PBS for 10 min. Following permeabilization, cells were blocked with 2% BSA (bovine serum albumin; Cell Signalling Technology, Danvers, MA, USA) in PBS for 30 min to prevent non-specific binding. Subsequently, cells were incubated overnight at 4 °C with a NF-KB antibody directly conjugated with Alexa Fluor 647 (#D14E12; Cell Signalling Technology, Danvers, MA, USA). The next day, after washing with PBS, nuclei were counterstained with DAPI (4′,6-diamidino-2-phenylindole; Sigma-Aldrich, St. Louis, MO, USA) for 5 min at room temperature. Coverslips were mounted onto glass slides using an antifade mounting medium and imaged using a Stellaris 5 confocal microscope (Leica Microsystems, GmbH, Wetzlar, Germany). Images were analysed using ImageJ software (Bethesda, MD, USA).

SMILES	IC50 (C8-D1A)	LDH release, cytotoxicity (A172)	Decreased ΔΨm (cell population) (U-87 MG)	NF-κB localisation (NF-κB)
CCC(CO)NS(=O)(=O)c1ccc(-n2nc(C)c3nc4nnnn4nc32)cc1 (stereo in doubt) [MM118, N-(R)-(1-hydroxy-but-2-yl)-4-[7-methyl-5H-pyrazolo[4,3-e]tetrazolo[1,5-b][1]^,[2]^,[4]triazin-5-yl)]benzenesulfonamide]	2190 ± 340 nM	16.59 ± 1.71%	54.88 ± 8.36%	NF-κB translocates to the cell nucleus
CCC(CO)NS(=O)(=O)c1ccc(-n2nc(C)c3nc4nnnn4nc32)cc1 (stereo in doubt) [MM119, N-(S)-(1-hydroxy-but-2-yl)-4-[7-methyl-5H-pyrazolo[4,3-e]tetrazolo[1,5-b][1]^,[2]^,[4]triazin-5-yl)]benzenesulfonamide]	2250 ± 294 nM	13.44 ± 2.87%	56.13 ± 13.97%	NF-κB translocates to the cell nucleus
Cn1nnc2c(C(N)=O)ncn2c1=O [TMZ, temozolomide, reference compound]	> 10000 nM	−0.61 ± 2.02%	7.05 ± 2.85%	NF-κB translocates to the cell nucleus
